Test results published in patent publication US20230414552A1, “NOVEL METHODS” (Colgate-Palmolive Company, priority 2020, published 2023).

What was measured:
Format in all cases: cell-based
PDLSCs [1] = experiment: Toluidine blue staining of surviving PDLSCs after co-culture with activated T cells
Text: After co-culture, toluidine blue staining allows for observation of the surviving PDLSCs that remain on the culture plates as positive staining. […] Natural ERK activators, PEITC and resveratrol, protect PDLSCs survival.

PDLSCs [2] = experiment: BrdU analysis of PDLSC proliferation; conditions: ERK activator treatment of PDLSCs
Text: (§1) To examine whether ERK activator can elevate PDLSC function through Wnt signaling, five different ERK activators are used to treat PDLSCs, and BMSCs (“Bone marrow-derived mesenchymal stem/stromal cells”) serve as the control in this experiment.

PDLSCs [3] = experiment: Alizarin red staining of PDLSC osteogenesis under osteogenic induction; conditions: for Mineralized Area (% Total Area): control 47% ± 3.61
Experimental: To examine the effect of natural compounds PEITC and resveratrol in PDLSC osteogenesis, cells are treated with 1 uM PEITC or 5 uM resveratrol under osteogenic induction. […] The stained positive areas are then quantifiable using NIH ImageJ software and shown as a percentage of the total area. To examine the effect of natural compounds yellow and white curcumin extracts in GMSC and PDLSC osteogenesis, cells are treated with 5 μM yellow and white curcumin extracts under osteogenic induction. Alizarin red staining show yellow curcumin extract, but not white curcumin extract treatment elevated osteogenic differentiation, as indicated by increased mineralized nodule formation. The stained positive areas were quantified using NIH ImageJ software and shown as a percentage of the total area.

Wnt/β-catenin = experiment: Western blot of ERK downstream signaling in PDLSCs; conditions: PDLSCs after treatment
Text: Subsequently, ERK downstream signaling pathways involve screening using a Western blot technique. This includes screening for Shp2 signaling, Notch signaling, and Wnt signaling.

GMSC = experiment: BrdU incorporation assay of GMSC proliferation; conditions: for Brdu + BMSC/Total Cells (%): control 28.1% ± 0.75
PDLSCs [4] = experiment: Western blot of osteogenic genes Runx2 and ALP in PDLSCs; conditions: PDLSC, 1 uM PEITC or 5 uM resveratrol, osteogenic induction
Experimental: The expression of the osteogenic genes runt-related transcription factor 2 (Runx2) and alkaline phosphatase (ALP) are also elevated in PEITC or resveratrol treated groups, assessable by Western blot. […] To examine the effect of natural compounds yellow and white curcumin extracts in GMSC and PDLSC osteogenesis, cells are treated with 5 μM yellow and white curcumin extracts under osteogenic induction. Alizarin red staining show yellow curcumin extract, but not white curcumin extract treatment elevated osteogenic differentiation, as indicated by increased mineralized nodule formation. The stained positive areas were quantified using NIH ImageJ software and shown as a percentage of the total area.

BMSCs = experiment: BrdU analysis of BMSC proliferation (control cells); conditions: BMSCs as control cells
Text: as §1

CD3+ T cells = experiment: PDLSC/T cell co-culture, flow cytometric analysis of apoptotic T cells; conditions: flow cytometry
Experimental: PEITC and resveratrol are tested to determine whether they contribute to PDLSC immunomodulation. A PDLSC/T cell co-culture experiment examines the immunomodulatory properties of PDLSCs with different compounds treatment.

Structure (SMILES): S=C=NCCc1ccccc1 [PEITC, Phenethyl Isothiocyanate]
- PDLSC survival from activated T cell attack (toluidine blue staining) (PDLSCs [1]): protect
- PDLSC proliferation rate (BrdU analysis) (PDLSCs [2]): significantly increases
- osteogenic differentiation, mineralized nodule formation (Alizarin red staining) (PDLSCs [3]; 1 uM PEITC): elevate
- Mineralized Area (% Total Area) (PDLSCs [3]; 1 μM): 65% ± 3.46
- Wnt/β-catenin activation (Western blot) (Wnt/β-catenin): highly activated
- GMSC cell proliferation (BrdU incorporation assay) (GMSC; 1 uM): significantly elevated
- Brdu + BMSC/Total Cells (%) (GMSC; 1 μM): 48.6% ± 4.79
- expression of Runx2 (Western blot) (PDLSCs [4]): elevated
- expression of alkaline phosphatase (ALP) (Western blot) (PDLSCs [4]): elevated
- effect on proliferation rate in BMSCs (BrdU analysis) (BMSCs): not observable
- PDLSC immunomodulation (AnnexinV+7AAD+ double positive apoptotic CD3+ T cells) (CD3+ T cells): significantly promotes

Structure (SMILES): Oc1ccc(/C=C/c2cc(O)cc(O)c2)cc1 [resveratrol, 3,5,4′-trihydroxy-trans-stilbene]
- PDLSC survival from activated T cell attack (toluidine blue staining) (PDLSCs [1]): protect
- PDLSC proliferation rate (BrdU analysis) (PDLSCs [2]): significantly increases
- osteogenic differentiation, mineralized nodule formation (Alizarin red staining) (PDLSCs [3]; 5 uM resveratrol): elevate
- Mineralized Area (% Total Area) (PDLSCs [3]; 5 μM): 59% ± 2.00
- Wnt/β-catenin activation (Western blot) (Wnt/β-catenin): highly activated
- GMSC cell proliferation (BrdU incorporation assay) (GMSC; 5 uM): significantly elevated
- Brdu + BMSC/Total Cells (%) (GMSC; 5 μM): 47.6% ± 3.17
- expression of Runx2 (Western blot) (PDLSCs [4]): elevated
- expression of alkaline phosphatase (ALP) (Western blot) (PDLSCs [4]): elevated
- effect on proliferation rate in BMSCs (BrdU analysis) (BMSCs): not observable
- PDLSC immunomodulation (AnnexinV+7AAD+ double positive apoptotic CD3+ T cells) (CD3+ T cells): significantly promotes

Structure (SMILES): CC(C)(C)c1cc(O)ccc1O [t-Butylhydroquinone, reference compound]
- PDLSC proliferation rate (BrdU analysis) (PDLSCs [2]): significantly increases
- Wnt/β-catenin activation (Western blot) (Wnt/β-catenin): highly activated
- effect on proliferation rate in BMSCs (BrdU analysis) (BMSCs): not observable
